Here are results for 13 compounds from US7288631B2 (Euroscreen, s.a., priority 1997, dated 2007).

Assay type in all cases: cell-based
Experiment [1] deals with T1, P2Y11 receptor (Homo sapiens, UniProt Q96G91, DUP173-173).
T1 construct: expressed in transfected cells; host or cells: 1321N1 astrocytoma cells and CHO-K1 cells, G418-selected, pEFIN3 bicistronic vector
T1 sequence (Q96G91 with tags, fused parts or gaps DUP173-173): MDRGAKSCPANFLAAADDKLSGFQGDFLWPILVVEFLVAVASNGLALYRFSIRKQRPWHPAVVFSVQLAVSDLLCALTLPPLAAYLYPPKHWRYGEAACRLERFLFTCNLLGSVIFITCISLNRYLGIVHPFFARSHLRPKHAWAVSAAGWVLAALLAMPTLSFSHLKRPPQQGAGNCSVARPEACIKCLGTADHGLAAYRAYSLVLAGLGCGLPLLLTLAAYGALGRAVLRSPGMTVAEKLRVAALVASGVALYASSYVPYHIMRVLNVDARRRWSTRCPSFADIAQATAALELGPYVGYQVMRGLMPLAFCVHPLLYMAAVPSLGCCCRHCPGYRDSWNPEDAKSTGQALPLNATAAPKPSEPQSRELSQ
The experiment can be described thus: Inositol trisphosphate (IP3) accumulation in 1321N1 astrocytoma cells transfected with the new receptor. The following applies: for Effect on IP3 accumulation in concentration-action curves: large range of concentrations, FIG. 4A; for Agonist efficacy compared with ATP: same for the phosphoinositide and cAMP pathways; for IP3 accumulation in response to nucleotide: 100 μM, pool of G418-resistant P2Y11-transfected 1321N1 clones. Here is the method:
(§1) The complete sequence of the new receptor according to the invention was subcloned between the Hind III and Nhe I sites of the bicistronic pEFIN3 expression vector. 1321N1 and CHO-K1 cells were transfected with the recombinant pEFIN3 plasmid or with the plasmid alone using the calcium phosphate precipitation method as described (19). The transfected cells were selected with 400 μg/ml G418 in complete medium (10% FCS, 100 units/ml penicillin, 100 μg/ml streptomycin and 2.5 μg/ml amphotericin B in Duibecco's modified Eagle's medium (DMEM)) two days after transfection and maintained in the same medium (10).
1321N1 cells were labelled for 24 hours with […] [^3H] inositol in inositol free DMEM containing 5% FCS, antibiotics, amphotericin, sodium pyruvate and 400 μg/ml G418. Cells were washed twice with Krebs-Ringer Hepes (KRH) buffer of the following composition (124 mM NaCl, 5 mM KC1, 1.25 mM MgSO4, 1.45 mM CaCl2, 1.25 mM KH2PO4, 25 mM Hepes (pH:7.4) and 8 mM glucose) and incubated in the same medium for 30 min. The cells were then challenged by various nucleotides for 30 s. The incubation was stopped by the addition of an ice cold 3% perchioric acid solution. IP were extracted and separated on Dowex columns as previously described (20).
The complete sequence of the new receptor was introduced in the pEFIN3 expression vector in order to transfect the 1321N1 astrocytoma cell line, used previously to characterize several P2Y subtypes (6, 10, 12). The pool of G418-resistant clones was tested for its functional response to several nucleotides.

Experiment [2] deals with T1, P2Y11 receptor. Description: cAMP accumulation in CHO-K1 cells transfected with the new receptor. The following applies: for Inhibition of the cAMP response to ATP (30 μM): indomethacin 10 μg/ml from 30 min before, 8 (p-sulfophenyl) theophylline 100 μM; for cAMP content in response to nucleotide: 100 μM, pool of G418 resistant P2Y11-transfected CHO-K1 clones. Here is the method: as §1
(§2) Stably transfected CHO-K1 or 1321N1 cell lines were spread on Petri dishes (150.000 cells per dish) and cultured in Ham's F12 or DMEM medium containing 10% FCS, antibiotics, amphotericin, sodium pyruvate and 400 μg/ml G418. Cells were preincubated for 30 min in KRH buffer with Rolipram (25 μM) and incubated for different times in the presence of the agonists (15 min in most experiments). The incubation was stopped by the addition of 1 ml HC1 0.1 M. The incubation medium was dried up, resuspended in water and diluted as required. Cyclic AMP was quantified by radioimmunoassay after acetylation as previously described (21).
(§3) A much lower but significant endogeneous response due to the degradation of adenine nucleotides into adenosine was also obtained in the 1321N1 cells transfected with the vector alone. […] We therefore used CHO-K1 cells in order to characterize the coupling of the new receptor to the cAMP pathway. A pool of G418 resistant CHO-K1 clones was first tested for its response to several nucleotides at a concentration of 100 μM. […] The rank order of potency was the same as in the inositol phosphate study on 1321N1 cells.
In general terms: cAMP levels reflect the balance of adenylyl cyclase and phosphodiesterase activity.

Experiment [3] deals with T1, P2Y11 receptor. The experiment can be described thus: [Ca2+]i measurements on 1321N1 transfected cells. To be noted: 10 μM. The method, then:
The complete sequence of the new receptor was introduced in the pEFIN3 expression vector in order to transfect the 1321N1 astrocytoma cell line, used previously to characterize several P2Y subtypes (6, 10, 12). The pool of G418-resistant clones was tested for its functional response to several nucleotides. […] The effect of ADP and 2MeSADP were minimal.

The subject of experiment [4] is CHO-K1 cells transfected with the vector alone. Description: cAMP in CHO-K1 cells transfected with the vector alone or untransfected. To be noted: 100 μM. The method, then: as §1
as §2, with “(21). […]” for “(21).”

The target of experiment [5] is T1, P2Y11 receptor. Description: cAMP measurement in 1321N1 cells transfected with the new receptor. Here is the method: as §2, §3

In the case of `CSc1nc(N)c2ncn([C@@H]3O[C@H](COP(=O)(O)OP(=O)(O)O)[C@@H](O)[C@H]3O)c2n1` [2MeSADP, 2-methylthio-ADP], on P2Y11 receptor [1], the “Effect on IP3 accumulation in concentration-action curves” value is recorded as “minimal” and the “Agonist efficacy compared with ATP” value was “almost inactive”.
In turn, `CSc1nc(N)c2ncn([C@@H]3O[C@H](COP(=O)(O)OP(=O)(O)OP(=O)(O)O)[C@@H](O)[C@H]3O)c2n1` [2MeSATP, 2-methylthio-ATP] came in with an EC50 at P2Y11 receptor [1] (P2Y11-transfected 1321N1 cells, 30 s, means±range of two independent experiments) of 118 ± 15 µM. For the same compound, at P2Y11 receptor [1], the “Agonist efficacy compared with ATP” value was “same maximal effect than ATP but presented a lower potency”.
For `Cn1c(=O)c2[nH]c(-c3ccc(S(=O)(=O)O)cc3)nc2n(C)c1=O` [8 (p-sulfophenyl) theophylline], the “Inhibition of the cAMP response to ATP (30 μM)” value at P2Y11 receptor [2] is given as “inhibited neither”.
With `Nc1ncnc2c1ncn2[C@@H]1O[C@H](COP(=O)(O)OP(=O)(O)O)[C@@H](O)[C@H]1O` [ADP], the “[Ca2+]i response” value at P2Y11 receptor [3] is “inactive”. Further, the “IP3 accumulation in response to nucleotide” value (from here on “IP3 accumulation in response”) at P2Y11 receptor [1] (30 s) is “inactive”. Besides, at P2Y11 receptor [1], the “Effect on IP3 accumulation in concentration-action curves” value is listed as “minimal”. Further, the “cAMP content in response to nucleotide” value on P2Y11 receptor [2] was “completely inactive”.
Take `Nc1ncnc2c1ncn2[C@@H]1O[C@H](COP(=O)(O)O)[C@@H](O)[C@H]1O` [AMP]: the “IP3 accumulation in response” value at P2Y11 receptor [1] (30 s) was “inactive”. Further, the “cAMP content in response to nucleotide” value at P2Y11 receptor [2] is “completely inactive”.
In the case of `Nc1ncnc2c1ncn2[C@@H]1O[C@H](COP(=O)(O)OP(=O)(O)OP(=O)(O)OP(=O)(O)OC[C@H]2O[C@@H](n3cnc4c(N)ncnc43)[C@H](O)[C@@H]2O)[C@@H](O)[C@H]1O` [AP4A], at P2Y11 receptor [1] (30 s), the “IP3 accumulation in response” value was “inactive”.
Still for that read-out and setting: next, `Nc1ncnc2c1ncn2[C@@H]1O[C@H](COP(=O)(O)OP(=O)(O)OP(=O)(O)OP(=O)(O)OP(=O)(O)OP(=O)(O)OC[C@H]2O[C@@H](n3cnc4c(N)ncnc43)[C@H](O)[C@@H]2O)[C@@H](O)[C@H]1O` [AP6A]: “inactive”.
Turning to `Nc1ncnc2c1ncn2[C@@H]1O[C@H](COP(=O)(O)OP(=O)(O)OP(=O)(O)O)[C@@H](O)[C@H]1O` [ATP], the “cAMP content in vector-alone cells” value in experiment [4] was “inactive”. Besides, at P2Y11 receptor [5], the cAMP response entry was “strong cAMP increase”. Besides, the “[Ca2+]i response” value on P2Y11 receptor [3] is reported as “response”. The “IP3 accumulation in response” value at P2Y11 receptor [1] (30 s) is “strong inositol trisphosphate (IP3) accumulation”. Besides, the “cAMP content in response to nucleotide” value at P2Y11 receptor [2] is “strong increase in the cAMP content”. In addition, the “cAMP response after short stimulation” value on P2Y11 receptor [2] (after 2 min of stimulation, CHO-K1) is given as “significant cAMP response”.
For the compound `O=c1ccn([C@@H]2O[C@H](COP(=O)(O)OP(=O)(O)O)[C@@H](O)[C@H]2O)c(=O)[nH]1` [UDP], the “IP3 accumulation in response” value on P2Y11 receptor [1] (30 s) is “inactive”. Further, the “cAMP content in response to nucleotide” value on P2Y11 receptor [2] was “completely inactive”.
As to `O=c1ccn([C@@H]2O[C@H](COP(=O)(O)OP(=O)(O)OP(=O)(O)O)[C@@H](O)[C@H]2O)c(=O)[nH]1` [UTP], on P2Y11 receptor [1] (30 s), the “IP3 accumulation in response” value is “inactive”. The “cAMP content in response to nucleotide” value on P2Y11 receptor [2] is “completely inactive”.
The matching figures for `Nc1ncnc2c1ncn2[C@@H]1O[C@H](CO)[C@@H](O)[C@H]1O` [adenosine]: “inactive” and “completely inactive”.
With `COc1ccc2c(c1)c(CC(=O)O)c(C)n2C(=O)c1ccc(Cl)cc1` [indomethacin, Indomethacin], on P2Y11 receptor [2], the “Inhibition of the cAMP response to ATP (30 μM)” value is given as “inhibited neither”.
Take Pertussis toxin: the “Effect on the ATP response (IP3)” value on P2Y11 receptor [1] (pertussis toxin 50 ng/ml, 24 h pretreatment) is reported as “no effect”.

One may read the EC50 as the concentration at which the effect is half-maximal. The low end stands for an effect from little substance, the high end for a need for much substance.
